Reference: patent US10144715B2, “Piperazine derivatives as liver X receptor modulators” (priority 2014, dated 2018)
pEC50, pIC50, pKi: −log10 of the molar value. Where two headings read alike, the source gives them in different places.

Key:
[1] = target: T1, LXR β LBD protein (Homo sapiens (Human), UniProt P55055); assay: biochemical; type: biochemical; settings: for pEC50: read-out: FRET LXRβ EC50
Target sequence in this assay (P55055 222-460): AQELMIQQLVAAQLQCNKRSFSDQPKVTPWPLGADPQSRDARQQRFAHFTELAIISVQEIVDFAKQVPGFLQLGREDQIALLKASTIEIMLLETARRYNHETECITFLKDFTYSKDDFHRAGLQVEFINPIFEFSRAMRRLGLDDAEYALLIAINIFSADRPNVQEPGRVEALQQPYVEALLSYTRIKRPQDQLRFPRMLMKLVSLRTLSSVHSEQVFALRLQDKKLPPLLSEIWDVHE

[2] = target: T2, LXR α LBD protein (Homo sapiens (Human), UniProt Q13133); assay: Human LXRα coactivator recruitment FRET assay, agonist mode; type: biochemical
T2 sequence (Q13133 209-447): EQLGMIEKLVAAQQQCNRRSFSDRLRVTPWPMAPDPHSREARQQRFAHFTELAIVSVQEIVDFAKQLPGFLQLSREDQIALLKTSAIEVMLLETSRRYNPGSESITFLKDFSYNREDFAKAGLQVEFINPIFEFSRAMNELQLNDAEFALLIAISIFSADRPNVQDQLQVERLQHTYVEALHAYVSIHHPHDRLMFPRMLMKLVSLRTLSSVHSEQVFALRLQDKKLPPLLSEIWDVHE
In short: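 LXRα- or LXRβ-LBD at 10 nM (2×) mixed with compound in DMSO, then fluorescein-SRC2-3 peptide 200 nM and Tb-anti-GST antibody 20 nM (4×) added; 2 h at rt. Time-resolved FRET read, 100 µs delay, 200 µs window; EC50 from four-parameter fit of percent control.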

[3] = target: T3, Gal4 DNA binding domain fused to the LBD of LXRβ in HEK293 cells (Homo sapiens (Human), UniProt P55055); assay: cell-based
T3 sequence (P55055 222-460 limits assumed): as the sequence (P55055 222-460) above

[4] = target: T2, LXR α LBD protein; settings: antagonist mode, 250 nM T0901317, coactivator recruitment TR-FRET; for pIC50: read-out: FRET LXRα IC50
Description: (§1) This assay is based on the ability of the LXR-LBDs (LXRα and LXRβ) to recruit and interact with a co-activator peptide.
(§2) Two μL of the DMSO solutions were transferred to the plate and 38 μL of 10 nM LXRα-LBD or LXRβ-LBD (2×) were added immediately to the wells. The plate was shaken for 5 min at rt on an orbital micro shaker (DPC MicroMix® 5), after which 40 μL of 200 nM fluorescein-SRC2-3 peptide and 20 nM Terbium-anti-GST-antibody (Cat# PV3550, Life Technologies, Grand Island, N.Y.) solution (4×) were added to all. The plate was sealed and shaken for 2 min at rt, and incubated at rt for 2 h without agitation. […] The delay and window times were set at 100 and 200 microseconds, respectively. […] The percent control vs. compound concentration data were fit into a four-parameter model, and EC50 values were calculated from the fit as the concentrations corresponding to the inflection points on the concentration-response curves.

[5] = target: T4, Gal4 DNA binding domain fused to the LBD of LXRα in HEK293 cells (Homo sapiens (Human), UniProt Q13133); assay: LXR luciferase transcriptional reporter gene assay, agonist mode, LXRα; type: cell-based; settings: for pEC50: read-out: Cell LXRα EC50
T4 sequence (Q13133 209-447): as the sequence (Q13133 209-447) above

[6] = target: T1, LXR β LBD protein; settings: read-out: FRET LXRβ IC50
Target sequence in this assay (P55055 222-460): as the sequence (P55055 222-460) above
Description: as §1, §2

[7] = target: T4, Gal4 DNA binding domain fused to the LBD of LXRα in HEK293 cells; assay: LXR luciferase transcriptional reporter gene assay, antagonist mode (200 nM T0901317), LXRα; type: cell-based; settings: for pIC50: read-out: Cell LXRα IC50
[8] = target: T3, Gal4 DNA binding domain fused to the LBD of LXRβ in HEK293 cells; assay: cell-based; type: cell-based
[9] = target: T2, LXR α LBD protein; assay: LXR α radioligand binding assay (SPA, competition with [3H]TO901317); settings: read-out: LXRα Binding Ki
[10] = target: T1, LXR β LBD protein; assay: biochemical; type: binding
Target sequence in this assay (P55055 222-460 limits assumed): as the sequence (P55055 222-460) above

[11] = target: T1, LXR β LBD protein; assay: biochemical
Target sequence in this assay (P55055 222-460): as above
Description: as §1, §2

[12] = tested on: LXRα-LBD or LXRβ-LBD; assay: Coactivator recruitment FRET assay, antagonist mode: agonist control signal (isoform not distinguished); type: biochemical, human; settings: 250 nM T0901317, high TR-FRET signal in antagonist mode
Description: When this assay was carried out in “antagonist” mode, 250 nM T0901317 (full LXR agonist) was added to induce nearly maximal SRC2-3 recruitment.

[13] = Biological Test Example 3, agonist mode
[14] = Biological Test Example 2, agonist mode
[15] = antagonist mode, 200 nM T0901317, HEK293 reporter gene assay
[16] = Biological Test Example 1, read-out: LXRβ Binding Ki

Molecule	pEC50 ([2]; agonist mode)	FRET LXRα efficacy ([2]; agonist mode) [%]	pEC50 [3]	pIC50 [4]	pEC50 ([5]; agonist mode)	Cell LXRα efficacy [5]	pKi [9]	pEC50 [5]	other results
CS(=O)(=O)c1cccc(N2CCN(Cc3ccc(C(F)(F)F)cc3)[C@H](c3ccccc3)C2)c1 (single isomer, unassigned) [46-14]	4.85	37	< 4.70	< 4.30	< 4.70				FRET LXRβ efficacy [1]: 2742 (49) %; pEC50 [1]: 5.56; pIC50 [6]: < 4.30
CS(=O)(=O)c1cccc(N2CCN(C[C@@H]3CCN(CC(F)(F)F)C3)[C@@H](c3ccccc3)C2)c1 (single isomer, unassigned) [48-61]			6.33			2312 (23) %	5.85		FRET LXRβ efficacy [1, 13]: 112 (23) %; pEC50 [1]: 6.95; pEC50 [2, 13]: 6.46; FRET LXRα efficacy [2, 13]: 26%; Cell LXRβ efficacy [3, 14]: 467 (5) %; Cell LXRα efficacy [7]: 870 (56) %; pIC50 [7, 15]: 6.06; pEC50 [5, 14]: 5.64; pIC50 [8]: 6.93; Cell LXRβ efficacy [8, 15]: 118 (72) %; pKi [10, 16]: 6.38
CC(C)[C@@H]1CN(c2cccc(S(C)(=O)=O)c2)CCN1C(=O)OC(C)(C)C [1-1, tert-butyl (R)-2-isopropyl-4-(3-(methylsulfonyl)phenyl)piperazine-1-carboxylate]	6.39	60	6.33			2778 (44) %	5.77	5.56	FRET LXRβ efficacy ([1]; agonist mode): 88%; pEC50 ([1]; agonist mode): 7.82; Cell LXRβ efficacy ([3]; agonist mode): 467 (34) %; pIC50 [7]: < 5.00; pIC50 [8]: 5.70; Cell LXRβ efficacy [8, 15]: 1996 (45) %; pKi ([10]; read-out: LXRβ Binding Ki): 6.80
CC(C)[C@H]1CN(c2cccc(S(C)(=O)=O)c2)CCN1C(=O)OC(C)(C)C [2-2, tert-butyl (S)-2-isopropyl-4-(3-(methylsulfonyl)phenyl)piperazine-1-carboxylate]	4.63	82	< 4.70		< 4.70		< 5.48		pIC50 [11]: < 4.30; pKi [10]: 5.72
CC(C)c1ccc(CN2CCN(c3cccc(S(C)(=O)=O)c3)C[C@@H]2c2ccccc2)cc1 [46-8, (S)-1-(4-isopropylbenzyl)-4-(3-(methylsulfonyl)phenyl)-2-phenylpiperazine]	6.33	15	5.87			3200 (22) %	5.76	5.49	pEC50 [1]: < 4.30; Cell LXRβ efficacy [3]: 1358 (18) %; Cell LXRα efficacy [7]: 8904 (282) %; pIC50 [7]: 5.05; Cell LXRβ efficacy [8]: 1421 (96) %; pIC50 [8]: 5.85; pKi ([10]; read-out: LXRβ Binding Ki): 6.64
CS(=O)(=O)c1ccc(F)c(N2CCN(Cc3ccc(C(F)(F)F)nc3)C(c3ccccc3)C2)c1 (stereo not drawn) [46-50, 4-(2-fluoro-5-(methylsulfonyl)phenyl)-2-phenyl-1-((6-(trifluoromethyl)pyridin-3-yl)methyl)piperazine]									FRET LXRα efficacy [4]: 102%
CS(=O)(=O)c1cccc(N2CCN(Cc3ccc(C(F)(F)F)nc3)C(c3cccc(Cl)c3)C2)c1 (stereo not drawn) [46-55, 2-(3-chlorophenyl)-4-(3-(methylsulfonyl)phenyl)-1-((6-(trifluoromethyl)pyridin-3-yl)methyl)piperazine]	5.18	25		< 4.30	5.56	2773 (7) %			
Cc1cccc(C2CN(c3cccc(S(C)(=O)=O)c3)CCN2Cc2ccc(C(F)(F)F)nc2)c1 (stereo not drawn) [46-62, 4-(3-(methylsulfonyl)phenyl)-2-(m-tolyl)-1-((6-(trifluoromethyl)pyridin-3-yl)methyl)piperazine]	5.11	32		< 4.30				< 4.70	
CS(=O)(=O)c1cc(N2CCN(C[C@H]3CC[C@@H](C(F)(F)F)CC3)[C@@H](c3ccc(F)cc3)C2)ccc1F [48-48, (S)-4-(4-fluoro-3-(methylsulfonyl)phenyl)-2-(4-fluorophenyl)-1-(((1s,4R)-4-(trifluoromethyl)cyclohexyl)methyl)piperazine]						460 (53) %	6.81	6.34	FRET LXRβ efficacy [1, 13]: 40%; pEC50 [1, 13]: 6.85; pEC50 [2, 13]: 5.88; FRET LXRα efficacy [2, 13]: 42%; Cell LXRβ efficacy [3, 14]: 31%; pEC50 ([3]; Biological Test Example 2, agonist mode, read-out: Cell LXRβ EC50): 6.95; pIC50 [7]: < 5.00; Cell LXRβ efficacy [8, 15]: 52%; pIC50 ([8]; antagonist mode, 200 nM T0901317, HEK293 reporter gene assay, read-out: Cell LXRβ IC50): 5.57; pKi [10, 16]: 7.64
CS(=O)(=O)c1cc(N2CCN(Cc3ccc(C(F)(F)F)nc3)C(c3ccccc3)C2)ccc1CO (stereo not drawn) [Cpd No 47-1, (2-(methylsulfonyl)-4-(3-phenyl-4-((6-(trifluoromethyl)pyridin-3-yl)methyl)piperazin-1-yl)phenyl)methanol]	5.69	76		< 4.30	5.08	8405 (46) %			
O=S(=O)(c1ccccc1)N(CC(F)(F)F)c1ccc(C(O)(C(F)(F)F)C(F)(F)F)cc1 [TO901317]									SRC2-3 recruitment [12]: ~75%
tert-butyl 4-(3-(methylsulfonyl)phenyl)-2-phenylpiperazine-1-carboxylate [1-5]	5.39	63		< 4.30		4297 (17) %		5.37	FRET LXRβ efficacy ([1]; agonist mode): 78%; pEC50 ([1]; agonist mode): 6.64; Cell LXRβ efficacy ([3]; agonist mode): 21%; pEC50 ([3]; agonist mode, read-out: Cell LXRβ EC50): 6.05; pIC50 ([6]; antagonist mode, 250 nM T0901317, coactivator recruitment TR-FRET): < 4.30
tert-butyl (S)-2-benzyl-4-(3-(methylsulfonyl)phenyl)piperazine-1-carboxylate [1-7]	4.92	33		< 4.30		2550 (8) %		5.59	
